Measurements reported in ChEMBL document CHEMBL5052840, “Pharmaceutical compounds and therapeutic methods” (2020).
One block for each compound: values may come before it. Active and inactive are the calls of the source. The rule behind the calls is not given here.

What was measured:
[1] = biological target: T1, Polycomb complex protein BMI-1 (Homo sapiens) (UniProt P35226); assay: Inhibition of BMI1 in human Glioblastoma cell 3D spheres at 7 to 10 nM assessed as reduction in BMI1 protein levels measured by Western blotting method; format: cell-based; conditions: Glioblastoma cell line, dose 7-10 nM
T1 sequence (whole entry): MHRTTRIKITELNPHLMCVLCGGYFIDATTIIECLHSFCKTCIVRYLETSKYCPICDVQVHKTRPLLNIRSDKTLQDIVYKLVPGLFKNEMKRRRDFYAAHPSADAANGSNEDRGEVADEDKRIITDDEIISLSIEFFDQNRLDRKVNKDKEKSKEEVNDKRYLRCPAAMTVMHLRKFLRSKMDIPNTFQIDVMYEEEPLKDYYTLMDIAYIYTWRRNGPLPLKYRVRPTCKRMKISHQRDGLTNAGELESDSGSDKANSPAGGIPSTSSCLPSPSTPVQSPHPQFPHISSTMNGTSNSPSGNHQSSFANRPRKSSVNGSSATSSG

[2] = biological target: T1, Polycomb complex protein BMI-1 (Homo sapiens); assay: Inhibition of BMI1 in human Glioblastoma cell 3D spheres at 7 to 10 nM assessed as reduction in phospho-RB levels measured by Western blotting method; format: cell-based; conditions: Glioblastoma cell line, dose 7-10 nM
[3] = biological target: T1, Polycomb complex protein BMI-1 (Homo sapiens); assay: Inhibition of BMI1 in human Glioblastoma cell 3D spheres at 7 to 10 nM assessed as reduction in STAT1 levels measured by Western blotting method; format: cell-based; conditions: Glioblastoma cell line, dose 7-10 nM
[4] = biological target: T1, Polycomb complex protein BMI-1 (Homo sapiens); assay: Inhibition of BMI1 in human Glioblastoma cell 3D spheres at 7 to 10 nM assessed as reduction in BMI1 protein levels measured up to 120 hrs by Western blotting method; format: cell-based; conditions: Glioblastoma cell line, dose 7-10 nM, time hrs <=120
[5] = biological target: T1, Polycomb complex protein BMI-1 (Homo sapiens); assay: Inhibition of BMI1 in human Glioblastoma cell 3D spheres at 7 to 10 nM assessed as reduction in PD-L1 protein levels measured up to 120 hrs by Western blotting method; format: cell-based; conditions: Glioblastoma cell line, dose 7-10 nM, time hrs <=120
[6] = biological target: T1, Polycomb complex protein BMI-1 (Homo sapiens); assay: Inhibition of BMI1 in human Glioblastoma cell 3D spheres at 7 to 10 nM assessed as reduction in phospho-RB levels measured up to 120 hrs by Western blotting method; format: cell-based; conditions: Glioblastoma cell line, dose 7-10 nM, time hrs <=120
[7] = Plasma concentration in male C57BL/6 mouse at 2 mg/kg, iv administered as single dose measured at 0.08 hrs measured by LC/MS-MS analysis; format: ADME, organism-based
[8] = Plasma concentration in male C57BL/6 mouse at 2 mg/kg, iv administered as single dose measured at 0.35 hrs measured by LC/MS-MS analysis; format: ADME, organism-based
[9] = Plasma concentration in male C57BL/6 mouse at 2 mg/kg, iv administered as single dose measured at 1 hr measured by LC/MS-MS analysis; format: ADME, organism-based
[10] = Plasma concentration in male C57BL/6 mouse at 10 mg/kg, ip administered as single dose measured at 0.08 hrs measured by LC/MS-MS analysis; format: ADME, organism-based
[11] = Plasma concentration in male C57BL/6 mouse at 10 mg/kg, ip administered as single dose measured at 0.35 hrs measured by LC/MS-MS analysis; format: ADME, organism-based
[12] = Plasma concentration in male C57BL/6 mouse at 10 mg/kg, ip administered as single dose measured at 1 hr measured by LC/MS-MS analysis; format: ADME, organism-based
[13] = Plasma concentration in male C57BL/6 mouse at 10 mg/kg, ip administered as single dose measured at 3 hrs measured by LC/MS-MS analysis; format: ADME, organism-based
[14] = Plasma concentration in male C57BL/6 mouse at 10 mg/kg, ip administered as single dose measured at 6 hrs measured by LC/MS-MS analysis; format: ADME, organism-based
[15] = Plasma concentration in male C57BL/6 mouse at 10 mg/kg, po administered as single dose measured at 0.08 hrs measured by LC/MS-MS analysis; format: ADME, organism-based
[16] = Plasma concentration in male C57BL/6 mouse at 10 mg/kg, po administered as single dose measured at 0.35 hrs measured by LC/MS-MS analysis; format: ADME, organism-based
[17] = Plasma concentration in male C57BL/6 mouse at 10 mg/kg, po administered as single dose measured at 1 hr measured by LC/MS-MS analysis; format: ADME, organism-based
[18] = Plasma concentration in male C57BL/6 mouse at 10 mg/kg, po administered as single dose measured at 3 hrs measured by LC/MS-MS analysis; format: ADME, organism-based
[19] = Plasma concentration in male C57BL/6 mouse at 10 mg/kg, po administered as single dose measured at 6 hrs measured by LC/MS-MS analysis; format: ADME, organism-based
[20] = Brain concentration in male C57BL/6 mouse at 2 mg/kg, iv administered as single dose measured at 0.08 hrs measured by LC/MS-MS analysis; format: ADME, organism-based; conditions: read-out: Drug uptake
[21] = Brain concentration in male C57BL/6 mouse at 2 mg/kg, iv administered as single dose measured at 0.35 hrs measured by LC/MS-MS analysis; format: ADME, organism-based; conditions: read-out: Drug uptake
[22] = Brain concentration in male C57BL/6 mouse at 2 mg/kg, iv administered as single dose measured at 1 hr measured by LC/MS-MS analysis; format: ADME, organism-based; conditions: read-out: Drug uptake
[23] = Brain concentration in male C57BL/6 mouse at 10 mg/kg, ip administered as single dose measured at 0.08 hrs measured by LC/MS-MS analysis; format: ADME, organism-based; conditions: read-out: Drug uptake
[24] = Brain concentration in male C57BL/6 mouse at 10 mg/kg, ip administered as single dose measured at 0.35 hrs measured by LC/MS-MS analysis; format: ADME, organism-based; conditions: read-out: Drug uptake
[25] = Brain concentration in male C57BL/6 mouse at 10 mg/kg, ip administered as single dose measured at 1 hr measured by LC/MS-MS analysis; format: ADME, organism-based; conditions: read-out: Drug uptake
[26] = Brain concentration in male C57BL/6 mouse at 10 mg/kg, ip administered as single dose measured at 3 hrs measured by LC/MS-MS analysis; format: ADME, organism-based; conditions: read-out: Drug uptake
[27] = Brain concentration in male C57BL/6 mouse at 10 mg/kg, ip administered as single dose measured at 6 hrs measured by LC/MS-MS analysis; format: ADME, organism-based; conditions: read-out: Drug uptake
[28] = Brain concentration in male C57BL/6 mouse at 10 mg/kg, po administered as single dose measured at 0.08 hrs measured by LC/MS-MS analysis; format: ADME, organism-based; conditions: read-out: Drug uptake
[29] = Brain concentration in male C57BL/6 mouse at 10 mg/kg, po administered as single dose measured at 0.35 hrs measured by LC/MS-MS analysis; format: ADME, organism-based; conditions: read-out: Drug uptake
[30] = Brain concentration in male C57BL/6 mouse at 10 mg/kg, po administered as single dose measured at 1 hr measured by LC/MS-MS analysis; format: ADME, organism-based; conditions: read-out: Drug uptake
[31] = Brain concentration in male C57BL/6 mouse at 10 mg/kg, po administered as single dose measured at 3 hrs measured by LC/MS-MS analysis; format: ADME, organism-based; conditions: read-out: Drug uptake
[32] = Brain concentration in male C57BL/6 mouse at 10 mg/kg, po administered as single dose measured at 6 hrs measured by LC/MS-MS analysis; format: ADME, organism-based; conditions: read-out: Drug uptake
[33] = Cmax in male C57BL/6 mouse plasma at 2 mg/kg, iv measured by LC/MS-MS analysis; format: ADME, organism-based; design: route intravenous, dose 2 mg/kg
[34] = Oral bioavailability in male C57BL/6 mouse plasma at 10 mg/kg measured by LC/MS-MS analysis; format: ADME, organism-based
[35] = Cmax in male C57BL/6 mouse brain at 2 mg/kg, iv measured by LC/MS-MS analysis; format: ADME, organism-based; design: route intravenous, dose 2 mg/kg
[36] = AUClast in male C57BL/6 mouse brain at 2 mg/kg, iv measured by LC/MS-MS analysis; format: ADME, organism-based; conditions: in vivo
[37] = AUClast in male C57BL/6 mouse brain at 10 mg/kg, ip measured by LC/MS-MS analysis; format: ADME, organism-based; conditions: in vivo
[38] = AUClast in male C57BL/6 mouse brain at 10 mg/kg, po measured by LC/MS-MS analysis; format: ADME, organism-based; conditions: in vivo
[39] = AUC (infinity) in male C57BL/6 mouse brain at 10 mg/kg, po measured by LC/MS-MS analysis; format: ADME, organism-based; design: time infinity, route oral, dose 10 mg/kg; conditions: in vivo
[40] = Antiproliferative activity against human Glioblastoma cell after 72 hrs by MTT assay; format: functional, cell-based; conditions: Glioblastoma cell line

inhibition [1]: Active
inhibition [2]: Active
inhibition [3]: Active
inhibition [4]: Active
inhibition [5]: Active
inhibition [6]: Active
Structure (SMILES): COc1c(F)cc(Nc2nc(-c3c(C)nc4ccccn34)cs2)cc1F.Cl

Structure (SMILES): Cl.[2H]C1([2H])Oc2ccc(Nc3nc(-c4c(C)nc5ccccn45)cs3)cc2O1
concentration at 0.08 h [7]: 256 ng/mL
concentration at 0.35 h [8]: 44.8 ng/mL
concentration at 1 h [9]: 9.57 ng/mL
concentration at 0.08 h [10]: 469 ng/mL
concentration at 0.35 h [11]: 458 ng/mL
concentration at 1 h [12]: 232 ng/mL
concentration at 3 h [13]: 74.9 ng/mL
concentration at 6 h [14]: 43.7 ng/mL
concentration at 0.08 h [15]: 207 ng/mL
concentration at 0.35 h [16]: 163 ng/mL
concentration at 1 h [17]: 109 ng/mL
concentration at 3 h [18]: 63.5 ng/mL
concentration at 6 h [19]: 45.5 ng/mL
concentration at 0.08 h [20]: 44.9 ng/g
concentration at 0.35 h [21]: 180 ng/g
concentration at 1 h [22]: 13.8 ng/g
concentration at 0.08 h [23]: 288 ng/g
concentration at 0.35 h [24]: 236 ng/g
concentration at 1 h [25]: 90.3 ng/g
concentration at 3 h [26]: 82 ng/g
concentration at 6 h [27]: 26 ng/g
concentration at 0.08 h [28]: 67.3 ng/g
concentration at 0.35 h [29]: 53 ng/g
concentration at 1 h [30]: 51.9 ng/g
concentration at 3 h [31]: 20.5 ng/g
concentration at 6 h [32]: 10.5 ng/g
Cmax [33]: 430 ng/mL
bioavailability [34]: 100%
Cmax [35]: 44.9 ng/g
AUClast [36]: 97.08 ng·h/g
AUClast [37]: 360.87 ng·h/g
AUClast [38]: 171.84 ng·h/g
AUC [39]: 204.06 ng·h/g

inhibition ([1]; tested as the 2H-labelled form): Active
inhibition ([2]; tested as the 2H-labelled form): Active
inhibition ([3]; tested as the 2H-labelled form): Active
Structure (SMILES): COc1ccc(Nc2nc(-c3c(C)nc4ccccn34)cs2)cc1
IC50 [40]: 10 nM

inhibition ([1]; tested as the 2H-labelled form): Active
inhibition ([2]; tested as the 2H-labelled form): Active
inhibition ([3]; tested as the 2H-labelled form): Active
Structure (SMILES): Cc1nc2ccccn2c1-c1csc(Nc2ccc3c(c2)OCO3)n1
